Measurements published in patent publication US8207347B2, “Pyridone derivatives as NK3 antagonists” (H. Lundbeck A/S, priority 2009, dated 2012).

Test system: not given
Experiment: not given
Details: Nature reviews, 4, 967-975, 2005; cited from earlier work

Compound | bioavailability | blood-brain barrier penetration | clearance | solubility
CC(=O)N(C)C1(c2ccccc2)CCN(CCC[C@]2(c3ccc(Cl)c(Cl)c3)CCCN(C(=O)c3ccccc3)C2)CC1 [Osanetant, osanetant] | poor | poor | relatively high | poor
CC[C@H](NC(=O)c1c(O)c(-c2ccccc2)nc2ccccc12)c1ccccc1 [talnetant] | poor | poor | relatively high | poor

Target: T1, human NK3 receptor (Homo sapiens, UniProt P29371)
T1 construct: expressed in transfected cells
T1 sequence (P29371 1-465): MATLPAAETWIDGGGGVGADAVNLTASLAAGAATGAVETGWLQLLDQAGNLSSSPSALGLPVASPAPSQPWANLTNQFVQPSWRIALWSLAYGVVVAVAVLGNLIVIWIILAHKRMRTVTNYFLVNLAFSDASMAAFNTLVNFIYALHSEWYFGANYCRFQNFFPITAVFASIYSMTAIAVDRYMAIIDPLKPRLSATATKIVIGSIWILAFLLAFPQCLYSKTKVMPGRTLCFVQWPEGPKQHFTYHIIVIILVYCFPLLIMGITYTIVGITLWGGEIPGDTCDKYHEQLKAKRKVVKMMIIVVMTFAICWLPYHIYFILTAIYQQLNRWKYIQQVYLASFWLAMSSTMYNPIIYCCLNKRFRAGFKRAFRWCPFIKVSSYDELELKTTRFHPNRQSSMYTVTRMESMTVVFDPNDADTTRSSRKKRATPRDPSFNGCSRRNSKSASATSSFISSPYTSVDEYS
Experiment: NK3 receptor binding assay (filter-based competition binding, 3H-AE93103)
Details: BHK cell membranes expressing human NK3 receptor; Ki from IC50 by Cheng Prusoff equation; read-out: Affinity (Ki/nM)
Method: BHK cells stably expressing the human NK3 receptor were seeded in harvesting plates in Dulbeccos MEM containing GlutaMax (862 mg/l), 1 mM sodium pyruvate, 10% fetal calf serum, 1% Pen/Strep, 1 mg/ml G418 and were grown at 34° C. in a humidified atmosphere containing 10% CO2. To increase receptor expression, 10 μM trichotatin A was added to the media 24 hours before harvest of the cells at a confluency of app 90%. Prior to the harvesting, the cells were washed twice with PBS without Mg^2+ of Ca^2+ and subsequently scrapped of in 10 ml PBS pr harvesting plate. The cells suspension were centrifuged at 1500×G in three minutes before resuspension in 15 mM Tris-HCl buffer pH 7.5 containing 2 mM MgCl2; 0.3 mM EDTA and 1 mM EGTA (buffer A). The cell suspension was homogenised and subsequently centrifuged at 40000×G in 30 minutes. The membrane-pellet was resuspended in buffer A containing 250 mM sucrose, aliquoted and stored at −80° C.
The assay is performed as a filter-based competition-binding in a 50 mM Tris pH 7.4 assay buffer containing 120 mM NaCl and 3 mM MnCl2. App 0.05 nM ^3H-AE93103 was mixed with test compounds before addition of 0.15 μg of a homogenised NK3 membrane preparation in a total volume of 300 μl. The assay plate is incubated for 90 min at RT before content of the wells is transferred using a cell-harvester to GF/C filter plates, which has been pretreated with 0.1% PEI. The filter is washed 3 times with 1 ml an ice-cold 50 mM Tris buffer, pH 7.4. The filter is dried and added scintillation liquid before the plate is counted in a topcounter 5 minutes pr well.
The total binding, which comprised less than 10% of added radioligand, was defined using assay buffer whereas the non-specific binding was defined in the presence of 1 μM SR142801. The non-specific binding constituted ˜10% of the total binding.
Data points are expressed in percent of the specific binding of ^3H-AE93103 and the […] (concentration causing 50% inhibition of ^3H-AE93103 specific binding) are determined by non-linear regression analysis using a sigmoidal variable slope curve fitting.

Compound | Ki
CCCn1c(C)c(C(=O)N[C@H](c2cc(F)cc(F)c2)C2CCC2)c(C)c(Br)c1=O [Example 1ak, 5-Bromo-2,4-dimethyl-6-oxo-1-propyl-1,6-dihydro-pyridine-3-carboxylic acid [(S)-cyclobutyl-(3,5-difluoro-phenyl)-methyl]-amide] | 49 nM
CCCNn1c(C)c(C(=O)N[C@H](c2ccccc2)C2CCC2)c(C)c(Br)c1=O [Example 1i, 5-Bromo-2,4-dimethyl-6-oxo-1-propylamino-1,6-dihydro-pyridine-3-carboxylic acid ((S)-cyclobutyl-phenyl-methyl)-amide] | 16 nM
CCCn1c(C)c(C(=O)N[C@H](c2ccccc2Cl)C2CC2)c(C)c(Br)c1=O [Example 1s, 5-Bromo-2,4-dimethyl-6-oxo-1-propyl-1,6-dihydro-pyridine-3-carboxylic acid [(S)-(2-chloro-phenyl)-cyclopropyl-methyl]-amide] | 67 nM
CCCn1c(C)c(C(=O)N[C@H](c2ccccc2)C2CCC2)c(C)c(Br)c1=O [Example 1z, 5-Bromo-2,4-dimethyl-6-oxo-1-propyl-1,6-dihydro-pyridine-3-carboxylic acid ((S)-cyclobutyl-phenyl-methyl)-amide] | 36 nM
Cc1c(C(=O)N[C@H](c2cccc(F)c2)C2CCC2)c(C)n(-c2ccccc2)c(=O)c1Br [Example 2a, 5-Bromo-2,4-dimethyl-6-oxo-1-phenyl-1,6-dihydro-pyridine-3-carboxylic acid [(S)-cyclobutyl-(3-fluoro-phenyl)-methyl]-amide] | 52 nM
CCNn1c(C)c(C(=O)N[C@H](c2cccc(F)c2)C2CCC2)c(C)c(Br)c1=O [Example 2c, 5-Bromo-1-ethylamino-2,4-dimethyl-6-oxo-1,6-dihydro-pyridine-3-carboxylic acid [(S)-cyclobutyl-(3-fluoro-phenyl)-methyl]-amide] | 24 nM
CCCn1c(C)c(C(=O)N[C@H](c2cccc(F)c2)C2CCC2)c(C)c(Br)c1=O [Example 2d, 5-Bromo-2,4-dimethyl-6-oxo-1-propyl-1,6-dihydro-pyridine-3-carboxylic acid [(S)-cyclobutyl-(3-fluoro-phenyl)-methyl]-amide] | 30 nM
CCc1c(C(=O)N[C@H](c2cccc(F)c2)C2CCC2)c(C)n(-c2ccccc2)c(=O)c1Br [Example 2e, 5-Bromo-4-ethyl-2-methyl-6-oxo-1-phenyl-1,6-dihydro-pyridine-3-carboxylic acid [(S)-cyclobutyl-(3-fluoro-phenyl)-methyl]-amide] | 50 nM
CCCc1c(C(=O)N[C@H](c2cccc(F)c2)C2CCC2)c(C)n(-c2ccccc2)c(=O)c1Br [Example 2f, 5-Bromo-2-methyl-6-oxo-1-phenyl-4-propyl-1,6-dihydro-pyridine-3-carboxylic acid [(S)-cyclobutyl-(3-fluoro-phenyl)-methyl]-amide] | 90 nM
Cc1c(C(=O)N[C@H](c2cccc(F)c2)C2CCC2)c(C(F)(F)F)c(Br)c(=O)n1-c1ccccc1 [Example 2g, 5-Bromo-2-methyl-6-oxo-1-phenyl-4-trifluoromethyl-1,6-dihydro-pyridine-3-carboxylic acid [(S)-cyclobutyl-(3-fluoro-phenyl)-methyl]-amide] | 7 nM
Cc1c(C(=O)N[C@H](c2cccc(F)c2)C2CCC2)c(C(F)(F)F)c(Cl)c(=O)n1-c1ccccc1 [Example 2m, 5-Chloro-2-methyl-6-oxo-1-phenyl-4-trifluoromethyl-1,6-dihydro-pyridine-3-carboxylic acid [(S)-cyclobutyl-(3-fluoro-phenyl)-methyl]-amide] | 24 nM
CCCNn1c(C)c(C(=O)N[C@H](c2cccc(F)c2)C2CCC2)c(C)c(C#N)c1=O [Example 3b, 5-Cyano-2,4-dimethyl-6-oxo-1-propylamino-1,6-dihydro-pyridine-3-carboxylic acid [(S)-cyclobutyl-(3-fluoro-phenyl)-methyl]-amide] | 22 nM
Cc1c(C(=O)N[C@H](c2cccc(F)c2)C2CCC2)c(C)n(Cc2ncco2)c(=O)c1C#N [Example 3d, 5-Cyano-2,4-dimethyl-1-oxazol-2-ylmethyl-6-oxo-1,6-dihydro-pyridine-3-carboxylic acid [(S)-cyclobutyl-(3-fluoro-phenyl)-methyl]-amide] | 34 nM
C#Cc1c(C)c(C(=O)N[C@H](c2cccc(F)c2)C2CCC2)c(C)n(-c2ccccc2)c1=O [Example 3e, 5-Ethynyl-2,4-dimethyl-6-oxo-1-phenyl-1,6-dihydro-pyridine-3-carboxylic acid [(S)-cyclobutyl-(3-fluoro-phenyl)-methyl]-amide] | 240 nM

Test system: not given
Experiment: not given
Details: Am. J. Psychiatry, 161, 2004, 975-984; cited from earlier work

Compound | effect in clinical trials, in particular on positive symptoms of psychosis
CC(=O)N(C)C1(c2ccccc2)CCN(CCC[C@]2(c3ccc(Cl)c(Cl)c3)CCCN(C(=O)c3ccccc3)C2)CC1 [Osanetant, osanetant] | superior to placebo

Same assay, conditions: schizophrenics; Curr. Opion. Invest. Drug, 6, 717-721, 2005; cited from earlier work

Compound | effect on cognitive behaviour in clinical trials
CC[C@H](NC(=O)c1c(O)c(-c2ccccc2)nc2ccccc12)c1ccccc1 [talnetant] | ameliorate the cognitive behaviour of schizophrenics
